Results taken from patent US6355799B1, “Substituted benzene compounds, process for their preparation, and herbicidal and defoliant compositions containing them” (ISK Americas Incorporated, priority 1997, dated 2002).

Tests used:
Type in all cases: in vivo
[1] = test system: ivyleaf morningglory (Ipomoea hederacea, IPOHE); assay: Post-emerge test, greenhouse herbicide activity screening; conditions: rating scale 0-100 (0 no damage, 100 complete death), 14 days after application
Procedure, shortened: (§1)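 Herbicidal damage is scored 0 (none) to 100 (complete plant death) two weeks after a simulated field spray. Rates span 15–1000 g ai/ha, delivered in acetone at 187 l/ha. For post-emergence treatments, plants have 2–3 leaves and the spray carries 0.25% v/v non-ionic surfactant.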

[2] = test system: redroot pigweed (Amaranthus retroflexus, AMARE); assay: as above; conditions: rating scale 0-100 (0 no damage, 100 complete death), 14 days after application
Procedure, shortened: as §1

[3] = test system: velvetleaf (Abutilon theophrasti, ABUTH); assay: as above; conditions: rating scale 0-100 (0 no damage, 100 complete death), 14 days after application
Procedure, shortened: as §1

[4] = test system: green foxtail (Setaria viridis, SETVI); assay: as above; conditions: rating scale 0-100 (0 no damage, 100 complete death), 14 days after application
Procedure, shortened: as §1

[5] = test system: johnsongrass (Sorghum halepense, SORHA); assay: as above; conditions: rating scale 0-100 (0 no damage, 100 complete death), 14 days after application
Procedure, shortened: as §1

[6] = test system: sicklepod (Cassia obtusifolia, CASOB); assay: as above; conditions: rating scale 0-100 (0 no damage, 100 complete death), 14 days after application
Procedure, shortened: as §1

[7] = test system: barnyardgrass (Echinochloa crus-galli, ECHCG); assay: as above; conditions: rating scale 0-100 (0 no damage, 100 complete death), 14 days after application
Procedure, shortened: as §1

[8] = test system: large crabgrass (Digitaria sanguinalis, DIGSA); assay: as above; conditions: rating scale 0-100 (0 no damage, 100 complete death), 14 days after application
Procedure, shortened: as §1

[9] = test system: upland rice (Oryza sp., var. Tebonnet, RICE); assay: Post-emerge test, crop safety; conditions: rating scale 0-100 (0 no damage, 100 complete death), 14 days after application
Procedure, shortened: (§2)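 Applied at 15–1000 g ai/ha from acetone in 187 l/ha spray volume. Post-emergence applications included 0.25% v/v non-ionic surfactant and reached plants sown 8–21 days before. Pre-emergence applications were incorporated by surface watering. Efficacy or crop damage was rated on a 0–100 scale after 14 days.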

[10] = test system: field corn (Zea mays L., var. Dekalb 535, CORN); assay: Post-emerge test, crop safety; conditions: rating scale 0-100 (0 no damage, 100 complete death), 14 days after application
Procedure, shortened: as §2

[11] = test system: redroot pigweed (Amaranthus retroflexus, AMARE); assay: Pre-emerge test, greenhouse herbicide activity screening; conditions: pre-emerge, 14 days after application, rating scale 0-100
Procedure, shortened: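 Compounds in acetone were track-sprayed at 15-1000 g ai/ha (187 l/ha) on sandy loam pots: pre-emerge one day after seeding, post-emerge at 2-3 leaf stage with 0.25% v/v non-ionic surfactant. Phytotoxicity was rated 14 days later on a 0 (no damage) to 100 (complete death) scale.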

[12] = test system: upland rice (Oryza sp., var. Tebonnet, RICE); assay: Pre-emerge test, crop safety; conditions: pre-emerge, 14 days after application, rating scale 0-100
Procedure, shortened: (§3)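 Sandy loam pots; pre-emerge: sown 1 d pre-spray, surface-watered after, then bottom-watered. Post-emerge: sown 8–21 d before, 2–3 leaf stage, + 0.25% v/v NIS, bottom-watered. Acetone, 187 l/ha track spray, 15–1000 g ai/ha. 0–100 injury score, day 14.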

[13] = test system: field corn (Zea mays L., var. Dekalb 535, CORN); assay: Pre-emerge test, crop safety; conditions: pre-emerge, 14 days after application, rating scale 0-100
Procedure, shortened: as §3

[14] = test system: ivyleaf morningglory (Ipomoea hederacea, IPOHE); assay: Pre-emerge test, greenhouse herbicide activity screening; conditions: pre-emerge, 14 days after application, rating scale 0-100
Procedure, shortened: as §2

[15] = test system: velvetleaf (Abutilon theophrasti, ABUTH); assay: as above; conditions: pre-emerge, 14 days after application, rating scale 0-100
Procedure, shortened: as §2

[16] = test system: green foxtail (Setaria viridis, SETVI); assay: as above; conditions: pre-emerge, 14 days after application, rating scale 0-100
Procedure, shortened: as §2

[17] = test system: johnsongrass (Sorghum halepense, SORHA); assay: as above; conditions: pre-emerge, 14 days after application, rating scale 0-100
Procedure, shortened: as §2

[18] = test system: lambsquarters (Chenopodium album, CHEAL); assay: as above; conditions: pre-emerge, 14 days after application, rating scale 0-100
Procedure, shortened: as §2

[19] = test system: sicklepod (Cassia obtusifolia, CASOB); assay: as above; conditions: pre-emerge, 14 days after application, rating scale 0-100
Procedure, shortened: as §2

[20] = test system: barnyardgrass (Echinochloa crus-galli, ECHCG); assay: as above; conditions: pre-emerge, 14 days after application, rating scale 0-100
Procedure, shortened: as §2

[21] = test system: large crabgrass (Digitaria sanguinalis, DIGSA); assay: as above; conditions: pre-emerge, 14 days after application, rating scale 0-100
Procedure, shortened: as §2

CCOC(=O)C(Cl)Cc1cc(Cl)cc(F)c1-n1nc(C)n(C(F)F)c1=O (stereo not drawn) [14-52]
Post-emerge Herbicidal Activity, phytotoxicity rating IPOHE ([1]; Rate 63 g ai/ha): 100 | Post-emerge Herbicidal Activity, phytotoxicity rating IPOHE ([1]; Rate 250 g ai/ha): 100 | Post-emerge Herbicidal Activity, phytotoxicity rating AMARE ([2]; Rate 63 g ai/ha): 20 | Post-emerge Herbicidal Activity, phytotoxicity rating AMARE ([2]; Rate 250 g ai/ha): 50 | Post-emerge Herbicidal Activity, phytotoxicity rating ABUTH ([3]; Rate 63 g ai/ha): 90 | Post-emerge Herbicidal Activity, phytotoxicity rating ABUTH ([3]; Rate 250 g ai/ha): 100 | Post-emerge Herbicidal Activity, phytotoxicity rating SETVI ([4]; Rate 63 g ai/ha): 0 | Post-emerge Herbicidal Activity, phytotoxicity rating SETVI ([4]; Rate 250 g ai/ha): 0 | Post-emerge Herbicidal Activity, phytotoxicity rating SORHA ([5]; Rate 63 g ai/ha): 0 | Post-emerge Herbicidal Activity, phytotoxicity rating SORHA ([5]; Rate 250 g ai/ha): 0 | Post-emerge Herbicidal Activity, phytotoxicity rating CASOB ([6]; Rate 63 g ai/ha): 0 | Post-emerge Herbicidal Activity, phytotoxicity rating CASOB ([6]; Rate 250 g ai/ha): 70 | Post-emerge Herbicidal Activity, phytotoxicity rating ECHCG ([7]; Rate 63 g ai/ha): 0 | Post-emerge Herbicidal Activity, phytotoxicity rating ECHCG ([7]; Rate 250 g ai/ha): 10 | Post-emerge Herbicidal Activity, phytotoxicity rating DIGSA ([8]; Rate 63 g ai/ha): 0 | Post-emerge Herbicidal Activity, phytotoxicity rating DIGSA ([8]; Rate 250 g ai/ha): 0 | Post-emerge phytotoxicity rating RICE (crop damage) ([9]; Rate 63 g ai/ha): 0 | Post-emerge phytotoxicity rating RICE (crop damage) ([9]; Rate 250 g ai/ha): 0 | Post-emerge phytotoxicity rating CORN (crop damage) ([10]; Rate 63 g ai/ha): 0 | Post-emerge phytotoxicity rating CORN (crop damage) ([10]; Rate 250 g ai/ha): 10 | phytotoxicity rating AMARE ([11]; 63 g ai/ha): 40 | phytotoxicity rating AMARE ([11]; 250 g ai/ha): 90 | phytotoxicity rating RICE ([12]; 63 g ai/ha): 0 | phytotoxicity rating RICE ([12]; 250 g ai/ha): 0 | phytotoxicity rating CORN ([13]; 63 g ai/ha): 0 | phytotoxicity rating CORN ([13]; 250 g ai/ha): 0 | phytotoxicity rating IPOHE ([14]; 63 g ai/ha): 0 | phytotoxicity rating IPOHE ([14]; 250 g ai/ha): 30 | phytotoxicity rating ABUTH ([15]; 63 g ai/ha): 70 | phytotoxicity rating ABUTH ([15]; 250 g ai/ha): 100 | phytotoxicity rating SETVI ([16]; 63 g ai/ha): 0 | phytotoxicity rating SETVI ([16]; 250 g ai/ha): 0 | phytotoxicity rating SORHA ([17]; 63 g ai/ha): 0 | phytotoxicity rating SORHA ([17]; 250 g ai/ha): 0 | phytotoxicity rating CHEAL ([18]; 63 g ai/ha): 80 | phytotoxicity rating CHEAL ([18]; 250 g ai/ha): 100 | phytotoxicity rating CASOB ([19]; 63 g ai/ha): 0 | phytotoxicity rating CASOB ([19]; 250 g ai/ha): 0 | phytotoxicity rating ECHCG ([20]; 63 g ai/ha): 0 | phytotoxicity rating ECHCG ([20]; 250 g ai/ha): 0 | phytotoxicity rating DIGSA ([21]; 63 g ai/ha): 0 | phytotoxicity rating DIGSA ([21]; 250 g ai/ha): 0
